Residues, ends and D or L forms follow the SMILES beside them.

Results on 13 compounds are retold here after US6476263B1, “Compounds for inhibiting β-amyloid peptide release and/or its synthesis” (Elan Pharmaceuticals, Inc., priority 1996, dated 2002).

Usually melting point stands for the temperature, or range, at which the solid turns liquid. In the case of `COC(=O)[C@@H](NC(=O)[C@H](CCSC)NC(=O)Cc1cc(F)cc(F)c1)c1ccccc1` [Example 193, N-[N-(3,5-Difluorophenylacetyl)-L-methioninyl]-L-phenylglycine Methyl Ester], the melting point stood at 189.3 °C.

For `CC(C)[C@H](NC(=O)Cc1cc(F)cc(F)c1)C(=O)N[C@H](C(=O)OC(C)(C)C)c1ccccc1` [Example 192, N-[N-(3,5-Difluorophenylacetyl)-L-valinyl]-L-phenylglycine tert-Butyl Ester], the melting point was 170.5 to 171.8 °C.

Take `COC(=O)[C@H](Cc1ccccc1)NC(=O)[C@H](C)NC(=O)CC1=CCCCC1` [Example 69, N-[N-(Cyclohex-1-enylacetyl)-L-alaninyl]-L-phenylalanine Methyl Ester]: the melting point was in the range of 139 to 142 °C.

In turn, `C[C@H](NC(=O)Cc1cc(F)cc(F)c1)C(=O)NCC(=O)OCCCc1ccccc1` [Example 46, N-[N-(3,5-Difluorophenylacetyl)-L-alaninyl]glycine 3-Phenylpropyl Ester] registered a melting point of 137 °C.

`C[C@H](NC(=O)Cc1cc(F)cc(F)c1)C(=O)N[C@H](C(=O)OCC(C)(C)C)c1ccccc1` [Example 138, N-[N-(3,5-Difluorophenylacetyl)-L-alaninyl]-L-phenylglycine Neopentyl Ester] showed a melting point of 133 to 136 °C.

For the compound `CCOC(=O)C(NC(=O)[C@H](C)NC(=O)Cc1cc(F)cc(F)c1)c1ccccc1F` (stereo partly drawn) [Example 135, Ethyl N-[N-(3,5-Difluorophenylacetyl)-L-alaninyl]-2-amino-2-(2-fluorophenyl)acetate], the melting point lay within 153 to 170 °C.

With `CC(C)COC(=O)[C@H](C)NC(=O)[C@@H](NC(=O)CC(C)C)c1ccccc1` [Example 79, N-[N-(Isovaleryl)-L-phenylglycinyl]-L-alanine iso-butyl Ester], the melting point lay within 181 to 186 °C.

With `CCC[C@H](NC(=O)[C@H](C)NC(=O)Cc1ccccc1)C(=O)OC` [Example 209, Methyl N-[N-(Phenylacetyl)-L-alaninyl]-2-(S)-aminopentanoate] (HELM PEPTIDE1{[O=C(Cc1ccccc1)[*:2]].A.[Nva].[CO[*:1]]}$$$$V2.0), the melting point lay within 135 to 137 °C.

The compound `COC(=O)CNC(=O)[C@H](C)NC(=O)Cc1cc(F)cc(F)c1` [Example 28, N-[N-(3,5-Difluorophenylacetyl)-L-alaninyl]glycine Methyl Ester] returned a melting point of 158 to 160 °C.

`COC(=O)[C@H](Cc1cscn1)NC(=O)[C@H](C)NC(=O)Cc1cc(F)cc(F)c1` [Example 31, Methyl N-[N-(3,5-Difluorophenylacetyl)-L-alaninyl]-(S)-2-amino-3-(thiazol-4-yl)propionate] registered a melting point of 136 to 139 °C.

`CC[C@H](C)[C@H](NC(=O)CC(C)C)C(=O)N[C@@H](C)C(=O)OCC(C)C` [Example 82, N-[N-(Isovaleryl)-L-isoleucinyl]-L-alanine iso-butyl Ester] gave a melting point of 142 to 146 °C.

`COC(=O)[C@H](Cc1ccccc1)NC(=O)[C@H](C)NC(=O)Cc1cccnc1` [Example 131, N-[N-(3-Pyridylacetyl)-L-alaninyl]-L-phenylalanine Methyl Ester]: the melting point was 150 to 152 °C.

Compound `CC(C)(C)OC(=O)[C@@H](NC(=O)[C@@H](NC(=O)CC1CCCC1)c1ccccc1)c1ccccc1` [Example 265, N-[N-(Cyclopentylacetyl)-L-phenylglycinyl]-L-phenylglycine tert-Butyl Ester] came in with a melting point of 190.8 °C.
